Results on 19 molecules are retold here after ChEMBL document CHEMBL4002544, “Design, synthesis and cytotoxic activity of certain novel chalcone analogous compounds” (Eur J Med Chem, 2017).

The test system of one experiment is HepG2. Put plainly: Antiproliferative activity against human HepG2 cells after 48 hrs by SRB assay. In kind it is functional, cell-based. The conditions noted are these: HepG2, 48 h. In general terms: The SRB assay estimates cell density from bound dye.
The target in experiment [1] is Tubulin beta-5 chain (Homo sapiens) (UniProt P07437). Description: Inhibition of tubulin beta polymerization in human HepG2 cells after 18 to 24 hrs by spectrophotometric method relative to control. In kind it is cell-based. Set-up: concentration or dose not given beside the values. The conditions noted are these: concentration not given here.
Chain of Tubulin beta-5 chain (Homo sapiens) (P07437 whole entry): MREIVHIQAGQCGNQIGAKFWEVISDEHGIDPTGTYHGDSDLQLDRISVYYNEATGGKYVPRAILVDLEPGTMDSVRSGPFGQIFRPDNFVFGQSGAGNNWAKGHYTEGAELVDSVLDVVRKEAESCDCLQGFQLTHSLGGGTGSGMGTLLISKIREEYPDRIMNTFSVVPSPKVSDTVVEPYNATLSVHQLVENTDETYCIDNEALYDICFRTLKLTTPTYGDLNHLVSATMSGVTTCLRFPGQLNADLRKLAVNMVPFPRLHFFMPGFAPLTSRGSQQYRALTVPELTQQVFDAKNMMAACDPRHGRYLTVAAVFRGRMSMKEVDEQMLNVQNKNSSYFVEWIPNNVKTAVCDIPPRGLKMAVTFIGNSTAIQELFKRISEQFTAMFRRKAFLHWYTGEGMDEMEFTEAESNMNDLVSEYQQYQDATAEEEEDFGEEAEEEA
Experiment [2] relates to MCF7. Description: Antiproliferative activity against human MCF7 cells after 48 hrs by SRB assay. Type of experiment: functional, cell-based. Conditions: MCF7, 48 h.
A short description of experiment [3]: Cytotoxicity against mouse AML-12 cells by MTT assay. Type of experiment: cell-based. The conditions noted are these: AML12. (Tetrazolium assays rely on reduction of a dye to a coloured formazan, in cell work by metabolically active cells.)
A short description of experiment [4]: Cytotoxicity against human Hs 371.T cells by MTT assay. Type of experiment: cell-based.
In experiment [5] the test system is MCF7. Description: Potency index, ratio of colchicine IC50 to compound IC50 for human MCF7 cells. Type of experiment: functional.
The target of experiment [6] is Tubulin beta-5 chain (Homo sapiens) (UniProt P07437). Put plainly: Inhibition of tubulin beta polymerization in human MCF7 cells after 18 to 24 hrs by spectrophotometric method relative to control. Type of experiment: cell-based. More on the design: concentration or dose not given beside the values. Conditions: concentration not given here.
Experiment [7] can be described thus: Selectivity ratio of IC50 for human Hs 371.T cells to IC50 for human MCF7 cells.
Experiment [8] can be described thus: Selectivity ratio of IC50 for mouse AML-12 cells to IC50 for human HepG2 cells.

As for `COc1cccc(C(=O)C2SC2c2ccc(Br)cc2)c1` (stereo unspecified), the IC50 (in general, the midpoint of a concentration-inhibition curve) came to 11 nM in the experiment on HepG2 and 23 nM with MCF7 [2]. For the same molecule, the inhibition (as a rule, the share of the control response that was lost under treatment) in experiment [1] was 85.7%.
Take `COc1cc2c(c(OC)c1OC)-c1ccc(OC)c(=O)cc1[C@@H](NC(C)=O)CC2` [COLCHICINE]: the IC50 in the experiment on HepG2 is 124 nM; in experiment [3] it was 138 nM; in the experiment on MCF7 [2], 150 nM; in experiment [4] it was 443 nM.
For `COc1ccc(C2=CC(c3ccc(Br)cc3)NC(=S)N2)cc1` (stereo unspecified), the 50% inhibitory concentration (IC50) with HepG2 worked out at 30 nM; in the experiment with MCF7 [2], 126 nM. The molecule also returned an inhibition in experiment [1] of 91.4%. For the same molecule, in the experiment on MCF7 [5], the “Ratio IC50” value is 2.
The molecule `COc1cccc(C(=O)C2OC2c2ccc(F)cc2)c1` (stereo unspecified) gave an inhibition in [6] of 88.4%. Further, the figures for the IC50 in the experiment with HepG2 and in the experiment with MCF7 [2] were 17 nM and 14 nM, respectively. Besides, the “Ratio IC50” value in the experiment on MCF7 [5] is reported as 10.
For the molecule `COc1cccc(C2=NN(c3ccccc3)C(c3ccc(Br)cc3)C2O)c1` (stereo unspecified), the inhibition in experiment [6] amounted to 87.8%; in [1], 84.6%. The IC50 was found to be 9.9 nM in the experiment on HepG2, 26.9 nM in experiment [3], 11 nM in the experiment on MCF7 [2] and 474 nM in experiment [4]. Further, the “Ratio IC50” value in experiment [7] and in experiment [8] was 2.5 - 9 in each case.
Consider `COc1cc(C2=CC(c3ccc(Cl)cc3)NC(=S)N2)cc(OC)c1OC` (stereo unspecified), for which the results for the IC50 (in the experiment on HepG2; in experiment [3]; with MCF7 [2]) were 11 nM, 88.5 nM and 120 nM, respectively. The molecule also yielded an inhibition in experiment [1] of 92.4%. The entries for the “Ratio IC50” value (in experiment [8]; in the experiment on MCF7 [5]) were 2.5 - 9 and 2, respectively.
As for `COc1ccc(C2C=C(c3cc(OC)c(OC)c(OC)c3)NC(=S)N2)cc1` (stereo unspecified), the IC50 turned out to be 90 nM in the experiment on HepG2 and 103 nM in the experiment with MCF7 [2]. Moreover, the “Ratio IC50” value in the experiment with MCF7 [5] was 2.
Take `COc1cc(C2=CC(c3ccc(Br)cc3)NC(=S)N2)cc(OC)c1OC` (stereo unspecified): the IC50 in the experiment on HepG2 was 9.5 nM; in experiment [3] it was 59.4 nM; with MCF7 [2], 77 nM. The molecule also came in with an inhibition in experiment [1] of 92.8%. The “Ratio IC50” value in experiment [8] is reported as 2.5 - 9; in the experiment with MCF7 [5], 2.
For the molecule `COc1cccc(C(=O)C(O)C(Nc2ccc(F)c(Cl)c2)c2ccc(Br)cc2)c1` (stereo unspecified), the values for the inhibition in experiment [6] and in [1] were 92.2% and 88.5%, respectively. In addition, the values for the IC50 (with HepG2; in the experiment on MCF7 [2]; in [4]) were 37.2 nM, 9.9 nM and 90.2 nM, respectively. Besides, the “Ratio IC50” value in experiment [7] is recorded as 2.5 - 9.
For `COc1cccc(C2=NNC(c3ccc(Br)cc3)C2O)c1` (stereo unspecified), the IC50 with HepG2 amounted to 43 nM; in the experiment with MCF7 [2] it was 49 nM.
On to `COc1cccc(C2=NN(c3ccccc3)C(c3ccc(Cl)cc3)C2O)c1` (stereo unspecified), for which the inhibition in [6] was 92.3%; in experiment [1], 93%. Also, the IC50 is 11 nM with HepG2, 74.1 nM in [3], 9.7 nM in the experiment on MCF7 [2] and 86.7 nM in experiment [4]. For the same molecule, the “Ratio IC50” value in experiment [7] and in experiment [8] was 2.5 - 9 throughout.
In the case of `COc1ccc(C2=NN(c3ccccc3)C(c3ccc(F)cc3)C2O)cc1` (stereo unspecified), the IC50 in the experiment with HepG2 was determined as 13 nM; with MCF7 [2], 16 nM.
Regarding `COc1cccc(C2=NNC(c3ccc(Cl)cc3)C2O)c1` (stereo unspecified), the IC50 is 35.3 nM with HepG2 and 49 nM with MCF7 [2].
With `COc1cccc(C(=O)C2SC2c2ccc(Cl)cc2)c1` (stereo unspecified), the inhibition in experiment [6] is 89.3%; in experiment [1] it was 88.6%. Further, the values for the IC50 in the experiment on HepG2 and with MCF7 [2] were 13 nM and 15 nM, respectively.
As for `COc1ccc(C2=NN(c3ccccc3)C(c3ccc(OC)cc3)C2O)cc1` (stereo unspecified), the IC50 in the experiment on HepG2 was 10.2 nM; in the experiment on MCF7 [2], 19 nM.
As for `COc1ccc(C(=O)C2OC2c2ccc(Cl)cc2)cc1` (stereo unspecified), the values for the IC50 with HepG2 and with MCF7 [2] were 15 nM and 26 nM, respectively.
`COc1cccc(C2=CC(c3ccc(Cl)cc3)NC(=S)N2)c1` (stereo unspecified): the values for the half-inhibitory concentration (IC50) in the experiment with HepG2 and in the experiment on MCF7 [2] were 54 nM and 150 nM, respectively. For the same molecule, in experiment [1], the inhibition stood at 90.6%. Moreover, the “Ratio IC50” value in the experiment on MCF7 [5] stood at 2.
In the case of `COc1cc(C2=CC(c3ccc(F)cc3)NC(=S)N2)cc(OC)c1OC` (stereo unspecified), the IC50 was 61.9 nM with HepG2 and 125 nM in the experiment on MCF7 [2]. The “Ratio IC50” value in the experiment with MCF7 [5] was 2.
In the case of `COc1cccc(C2=CC(c3ccc(Br)cc3)NC(=S)N2)c1` (stereo unspecified), the figures for the 50% inhibitory concentration (IC50) in the experiment with HepG2 and in the experiment with MCF7 [2] were 34 nM and 135 nM, respectively. For the same molecule, the “Ratio IC50” value in the experiment with MCF7 [5] was 2.
